Data published in patent US10822317B2, “Methods and compositions for wound healing” (QBiotics Limited, priority 2013, dated 2020).

Experiments:
Format in all cases: cell-based
[1] = system: human peripheral blood monocytes; assay: Differentiation of monocytes into macrophages; conditions: 10-fold dilutions; 4 days; adherence and morphology
Experimental: To determine potential effects of Compound 1 and fifteen other epoxy-tigliane compounds in the array on monocyte differentiation, human peripheral blood mononuclear cells (PBMCs) were isolated by Ficoll-Paque sedimentation of heparinised blood from a human donor, and plated at 100,000 cells/well in RPMI-1640 10% FCS. Duplicate wells were treated with 10-fold dilutions of the compounds and incubated at 37° C. for 4 days. The wells were scored visually for cell attachment and morphology, then washed twice with PBS, stained with sulfurhodamine and the incorporate stain quantitated in an ELISA reader. The plates were then washed with water and stained with 1% crystal violet in methanol for photography and scoring of adherent cell morphology.

[2] = system: human neonatal fibroblasts; assay: Matrigel invasion assay for migratory ability; conditions: for Cell count as % of control (Control = no compounds added): 30 ng/mL, 24 hrs, fibroblasts starved 2 days, 1% foetal calf serum, ± standard deviation, two replicate experiments
Description: Matrigel invasion chambers provide cells with the conditions that allow assessment of their invasive property in vitro. The Matrigel invasion chambers consists of a cell culture companion plate with cell culture inserts containing an 8 micron pore size PET membrane with a thin layer of Matrigel Basement Membrane Matrix. The Matrigel matrix serves as a reconstituted basement membrane in vitro. The layer occludes the pores of the membrane, blocking non-invasive cells from migrating through the membrane. In contrast, invasive cells are able to detach themselves from and invade through the Matrigel matrix and the 8 micron membrane pores. The membrane may be processed for light and electron microscopy and can be easily removed after staining.
The chambers were used according to the manufacturer's instructions, as described below in two studies, to assess the effects of Compounds 1, 2, 5 and 42 on migration of human neonatal fibroblasts. The first study assessed effects of three concentrations (0, 10 and 30 ng/mL) of Compound 1 on neonatal fibroblasts in wells containing media with 10% foetal calf serum. The second study used two concentrations (0 and 30 ng/mL) for each of Compounds 1, 2, 5 and 42 to examine effects on migration of neonatal fibroblasts starved for 2 days prior to treatment and then transferred to media with 1% foetal calf serum.
The package containing the chambers was removed from −20° C. storage and allowed to come to room temperature. Warm (37° C.) bicarbonate based culture medium was added to the interior of the inserts (500 μL) and bottom of wells (750 μL). The chambers containing the Matrigel were allowed to rehydrate for 2 hours in humidified tissue culture incubator, 37° C., 5% CO2 atmosphere. After rehydration, the medium was carefully removed by aspiration without disturbing the layer of Matrigel™ Matrix on the membrane.
Cells were harvested, and resuspended at 20,000 cells per mL. A total of 250 μL of the cell suspension was placed into the interior of the insert (5,000 cells). An extra 250 μL media containing the respective Compounds was then added to the interior of the insert to give the desired final concentrations for each of the two studies. A total of 750 μL of media containing appropriate concentrations of each compound in each treatment were placed in the well under the appropriate insert. The Matrigel chambers were then incubated for 24 hours in a humidified tissue culture incubator, at 37° C., 5% CO2 atmosphere.
Non-invading cells were removed from the upper surface of the membrane by “scrubbing”. A cotton tipped swab was dipped into the insert after removal of the media, and firm pressure applied while the tip was moved over the membrane surface. The scrubbing was repeated with a second swab moistened with PBS. Cells that had invaded to the external surface of the insert were then fixed by placing in […] of 100% methanol for at least 5 mins. Inserts were then transferred to a companion plate containing 500 μL of 0.1% crystal violet in methanol, and stained for at least 15 mins. Inserts were destained by passage through 3 companion plates containing 500 μL water, before being air dried.
The following day, the membrane was removed from the insert housing by inverting the insert and inserting the tip of a sharp scalpel blade through the membrane at the edge adjacent to the housing wall. The insert housing was rotated against the stationary blade and the membrane was released. […]

[3] = system: human neonatal fibroblasts; assay: Scratch closure, human neonatal fibroblasts, Method 3 (IncuCyte)
Experimental: The ability of early. passage neonatal foreskin fibroblasts (NFF) cultured in RPMI 1640-10% foetal calf serum to migrate across a scratch wound made in a confluent monolayer following treatment with purified compounds or plant extracts was determined using one or more of the following three methods.
Cells were seeded and treated in 96-well plates as in Method 2 (5 replicate wells per dilution), except that the scratches were made in one action with a tool having 96, 1 mm thick teflon coated pins (Essen Bioscience Woundmaker). The plate was then placed in a 37° C., 5% CO2 humidified atmosphere in an IncuCyte FLR instrument programmed to photograph each well under phase contrast at 3 hr intervals for 42 hours. The software determined the initial scratch boundaries and their rate of closure. Accelerated wound closure was considered to be significant if the initial rate of closure was >10% of the untreated controls.

SMILES	Differentiation endpoint (endpoint concentration in dilution series for induction of macrophage phenotype) [1] [ng/mL]	Cell count as % of control (Control = no compounds added) [2] [%]	% closure compared to control ([3]; 30 ng/mL) [%]	migratory ability in the Matrigel invasion chamber system vs vehicle alone ([2]; first study, 10 or 30 ng/mL, 10% foetal calf serum, 24 hours)	% closure compared to control ([3]; 100 ng/mL) [%]
CCC(C)C(=O)OC1C(C)C2(O)C(C3OC3(CO)C(O)C3(O)C(=O)C(C)=CC32)C2C(C)(C)C12OC(=O)C(C)CC (centres unmarked) [Compound 2, 12,13-di-(2-methylbutanoyl)-6,7-epoxy-4,5,9,12,13,20-hexahydroxy-1-tigliaen-3-one]	1	366 ± 122	147	–	–
CC=C(C)C(=O)OC1C(C)C2(O)C(C3OC3(CO)C(O)C3(O)C(=O)C(C)=CC32)C2C(C)(C)C12OC(=O)C(C)CC (centres unmarked) [Compound 1, 12-tigloyl-13-(2-methylbutanoyl)-6,7-epoxy-4,5,9,12,13,20-hexahydroxy-1-tigliaen-3-one]	1	356 ± 141	150	increased migratory ability	160
